Reference: article PMC10174618, “Monoterpenoid aryl hydrocarbon receptor allosteric antagonists protect against ultraviolet skin damage in female mice” (Nature Communications, 2023)

Experiments:
Assay in all cases: biochemical
Parameters in all cases: KINOMEscan scanMAX active site-directed competition binding assay, percent of control, 468 kinases
Conditions in all cases: competition binding, percent of control
[1] = target: T1, ABL1(T315I)-nonphosphorylated (Homo sapiens, UniProt P00519, T315I)
T1 construct: nonphosphorylated
In short: (§1)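 KINOMEscan active site-directed competition binding assay against 468 human kinases with 100 μM S-carvone. Binding expressed as % of control, with 35% of control as the inhibition threshold.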

ALK = ALK (Homo sapiens, UniProt Q9UM73)
In short: as §1

BMPR1A = BMPR1A (Homo sapiens, UniProt P36894)
In short: as §1

CDK4 = CDK4 (Homo sapiens, UniProt P11802)
In short: as §1

CDKL2 = CDKL2 (Homo sapiens, UniProt Q92772)
In short: as §1

DMPK = DMPK (Homo sapiens, UniProt Q09013)
In short: as §1

HIPK3 = HIPK3 (Homo sapiens, UniProt Q9H422)
In short: as §1

LATS1 = LATS1 (Homo sapiens, UniProt O95835)
In short: as §1

MARK2 = MARK2 (Homo sapiens, UniProt Q7KZI7)
In short: as §1

MEK4 = target: T2, MEK4 (Homo sapiens, UniProt P45985)
T2 construct: gene MAP2K4
In short: as §1

MET(Y1235D) = MET(Y1235D) (Homo sapiens, UniProt P08581, Y1235D)
In short: as §1

MLK1 = target: T3, MLK1 (Homo sapiens, UniProt P80192)
T3 construct: gene MAP3K9
In short: as §1

NIM1 = target: T4, NIM1 (Homo sapiens, UniProt Q8IY84)
T4 construct: gene NIM1K
In short: as §1

OSR1 = target: T5, OSR1 (Homo sapiens, UniProt O95747)
T5 construct: gene OXSR1
In short: as §1

PAK4 = PAK4 (Homo sapiens, UniProt O96013)
In short: as §1

PCTK3 = target: T6, PCTK3 (Homo sapiens, UniProt Q07002)
T6 construct: gene CDK18
In short: as §1

PFTK1 = target: T7, PFTK1 (Homo sapiens, UniProt O94921)
T7 construct: gene CDK14
In short: as §1

PIK3CG = PIK3CG (Homo sapiens, UniProt P48736)
In short: as §1

[2] = target: T8, RPS6KA4(Kin.Dom.1-N-terminal) (Homo sapiens, UniProt O75676)
T8 construct: Kin.Dom.1-N-terminal
In short: as §1

TGFBR2 = TGFBR2 (Homo sapiens, UniProt P37173)
In short: as §1

WNK1 = WNK1 (Homo sapiens, UniProt Q9H4A3)
In short: as §1

WNK2 = WNK2 (Homo sapiens, UniProt Q9Y3S1)
In short: as §1

Sequence of WNK2 (Q9Y3S1 whole entry): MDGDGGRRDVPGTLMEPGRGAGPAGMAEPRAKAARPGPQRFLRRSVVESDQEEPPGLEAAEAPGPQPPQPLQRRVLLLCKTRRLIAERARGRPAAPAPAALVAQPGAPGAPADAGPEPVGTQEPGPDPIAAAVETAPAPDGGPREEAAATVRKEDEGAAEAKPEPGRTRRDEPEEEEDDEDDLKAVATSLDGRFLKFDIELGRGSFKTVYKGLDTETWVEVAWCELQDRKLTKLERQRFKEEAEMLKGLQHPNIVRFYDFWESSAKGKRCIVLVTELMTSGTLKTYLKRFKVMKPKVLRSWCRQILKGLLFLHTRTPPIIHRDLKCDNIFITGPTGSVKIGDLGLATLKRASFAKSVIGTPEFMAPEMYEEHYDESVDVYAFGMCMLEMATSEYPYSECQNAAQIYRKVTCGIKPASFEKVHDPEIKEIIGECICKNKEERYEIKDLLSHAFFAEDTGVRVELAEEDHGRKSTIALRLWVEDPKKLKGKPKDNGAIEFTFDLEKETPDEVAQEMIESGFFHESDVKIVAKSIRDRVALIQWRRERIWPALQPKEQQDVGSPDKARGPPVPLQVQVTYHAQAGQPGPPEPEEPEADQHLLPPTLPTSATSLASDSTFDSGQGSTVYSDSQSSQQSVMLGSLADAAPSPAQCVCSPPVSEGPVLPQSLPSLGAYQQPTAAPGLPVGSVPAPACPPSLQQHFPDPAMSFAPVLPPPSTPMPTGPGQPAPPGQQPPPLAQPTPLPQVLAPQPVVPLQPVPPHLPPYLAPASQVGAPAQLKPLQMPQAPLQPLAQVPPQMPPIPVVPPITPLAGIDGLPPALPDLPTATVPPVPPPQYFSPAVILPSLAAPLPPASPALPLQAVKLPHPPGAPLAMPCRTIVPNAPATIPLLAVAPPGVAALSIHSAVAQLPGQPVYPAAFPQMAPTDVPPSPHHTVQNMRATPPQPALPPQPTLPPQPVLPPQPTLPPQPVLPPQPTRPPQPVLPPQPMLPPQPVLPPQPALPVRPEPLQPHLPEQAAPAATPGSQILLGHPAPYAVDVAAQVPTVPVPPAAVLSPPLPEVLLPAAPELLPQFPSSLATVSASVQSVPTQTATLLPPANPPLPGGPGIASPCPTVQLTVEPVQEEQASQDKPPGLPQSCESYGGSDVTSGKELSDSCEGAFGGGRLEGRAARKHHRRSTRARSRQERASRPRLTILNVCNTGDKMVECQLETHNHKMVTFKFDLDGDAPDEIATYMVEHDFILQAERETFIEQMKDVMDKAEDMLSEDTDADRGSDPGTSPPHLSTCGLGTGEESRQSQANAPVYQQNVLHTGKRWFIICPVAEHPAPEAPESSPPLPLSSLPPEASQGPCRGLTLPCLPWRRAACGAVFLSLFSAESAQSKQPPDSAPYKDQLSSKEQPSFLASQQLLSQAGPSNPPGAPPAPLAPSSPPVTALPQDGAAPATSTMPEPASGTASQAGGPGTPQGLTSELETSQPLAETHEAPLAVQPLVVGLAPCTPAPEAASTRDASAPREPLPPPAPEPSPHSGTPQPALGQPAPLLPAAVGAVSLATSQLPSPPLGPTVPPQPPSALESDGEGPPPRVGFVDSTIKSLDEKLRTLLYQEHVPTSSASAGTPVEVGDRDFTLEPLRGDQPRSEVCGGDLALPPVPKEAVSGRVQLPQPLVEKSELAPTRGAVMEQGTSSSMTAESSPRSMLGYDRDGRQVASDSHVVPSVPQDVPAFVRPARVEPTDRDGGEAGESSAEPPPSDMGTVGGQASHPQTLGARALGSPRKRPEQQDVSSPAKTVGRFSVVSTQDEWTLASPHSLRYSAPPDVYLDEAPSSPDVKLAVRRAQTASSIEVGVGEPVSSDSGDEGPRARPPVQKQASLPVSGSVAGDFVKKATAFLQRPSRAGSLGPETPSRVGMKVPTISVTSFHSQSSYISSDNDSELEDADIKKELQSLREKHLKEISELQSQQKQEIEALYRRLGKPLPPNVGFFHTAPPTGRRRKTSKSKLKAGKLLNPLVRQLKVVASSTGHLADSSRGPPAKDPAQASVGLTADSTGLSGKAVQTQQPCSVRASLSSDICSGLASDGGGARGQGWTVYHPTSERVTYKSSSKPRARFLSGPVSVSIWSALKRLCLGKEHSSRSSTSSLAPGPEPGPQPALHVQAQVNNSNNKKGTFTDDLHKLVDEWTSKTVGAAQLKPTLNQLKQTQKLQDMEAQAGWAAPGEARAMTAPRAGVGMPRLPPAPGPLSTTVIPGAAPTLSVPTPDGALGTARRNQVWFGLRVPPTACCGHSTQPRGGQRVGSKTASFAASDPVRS
Sequence of PAK4 (O96013 whole entry): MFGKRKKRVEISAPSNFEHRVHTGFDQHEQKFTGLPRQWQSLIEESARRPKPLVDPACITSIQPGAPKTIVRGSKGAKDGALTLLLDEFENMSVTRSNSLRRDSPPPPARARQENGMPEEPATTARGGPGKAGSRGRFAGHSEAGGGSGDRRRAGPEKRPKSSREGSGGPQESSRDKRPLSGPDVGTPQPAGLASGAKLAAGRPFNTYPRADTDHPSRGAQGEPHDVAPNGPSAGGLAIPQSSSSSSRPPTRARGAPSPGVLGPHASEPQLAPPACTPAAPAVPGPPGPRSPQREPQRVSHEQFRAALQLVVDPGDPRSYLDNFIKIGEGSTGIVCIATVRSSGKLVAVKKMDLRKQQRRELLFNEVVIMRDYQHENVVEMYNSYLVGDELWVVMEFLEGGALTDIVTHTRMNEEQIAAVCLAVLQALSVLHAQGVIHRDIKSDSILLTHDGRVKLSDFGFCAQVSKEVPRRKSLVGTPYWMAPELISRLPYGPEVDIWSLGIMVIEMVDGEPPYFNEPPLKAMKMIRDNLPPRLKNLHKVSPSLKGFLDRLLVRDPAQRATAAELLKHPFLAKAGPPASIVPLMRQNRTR
Sequence of PIK3CG (P48736 whole entry): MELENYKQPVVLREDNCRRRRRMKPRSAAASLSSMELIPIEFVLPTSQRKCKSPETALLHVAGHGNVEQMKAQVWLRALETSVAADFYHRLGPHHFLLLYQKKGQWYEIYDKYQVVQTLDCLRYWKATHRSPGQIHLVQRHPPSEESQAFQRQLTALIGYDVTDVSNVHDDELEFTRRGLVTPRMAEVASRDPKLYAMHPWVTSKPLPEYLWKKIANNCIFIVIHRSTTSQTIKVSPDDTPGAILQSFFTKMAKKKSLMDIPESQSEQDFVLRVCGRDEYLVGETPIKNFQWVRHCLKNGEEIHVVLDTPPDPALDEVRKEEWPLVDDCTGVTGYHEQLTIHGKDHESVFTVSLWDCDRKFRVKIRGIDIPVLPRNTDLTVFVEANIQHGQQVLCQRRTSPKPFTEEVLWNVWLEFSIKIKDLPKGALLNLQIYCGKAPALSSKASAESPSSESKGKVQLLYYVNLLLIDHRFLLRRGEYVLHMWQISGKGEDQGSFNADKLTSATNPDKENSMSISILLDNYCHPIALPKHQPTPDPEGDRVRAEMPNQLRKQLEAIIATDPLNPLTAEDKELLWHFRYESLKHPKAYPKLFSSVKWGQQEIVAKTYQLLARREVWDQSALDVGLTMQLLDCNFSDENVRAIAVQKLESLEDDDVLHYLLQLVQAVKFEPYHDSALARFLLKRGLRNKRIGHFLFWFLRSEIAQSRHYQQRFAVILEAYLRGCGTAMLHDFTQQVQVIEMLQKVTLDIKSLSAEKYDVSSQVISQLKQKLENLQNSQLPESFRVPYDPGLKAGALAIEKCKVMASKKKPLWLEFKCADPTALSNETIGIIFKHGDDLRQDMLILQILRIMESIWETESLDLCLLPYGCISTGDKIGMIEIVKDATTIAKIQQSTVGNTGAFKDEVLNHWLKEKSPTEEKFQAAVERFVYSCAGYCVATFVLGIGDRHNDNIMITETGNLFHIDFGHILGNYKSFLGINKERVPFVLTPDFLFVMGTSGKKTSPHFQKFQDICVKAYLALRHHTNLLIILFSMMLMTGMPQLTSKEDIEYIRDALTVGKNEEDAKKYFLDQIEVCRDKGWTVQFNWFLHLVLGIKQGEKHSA
Sequence of DMPK (Q09013 whole entry): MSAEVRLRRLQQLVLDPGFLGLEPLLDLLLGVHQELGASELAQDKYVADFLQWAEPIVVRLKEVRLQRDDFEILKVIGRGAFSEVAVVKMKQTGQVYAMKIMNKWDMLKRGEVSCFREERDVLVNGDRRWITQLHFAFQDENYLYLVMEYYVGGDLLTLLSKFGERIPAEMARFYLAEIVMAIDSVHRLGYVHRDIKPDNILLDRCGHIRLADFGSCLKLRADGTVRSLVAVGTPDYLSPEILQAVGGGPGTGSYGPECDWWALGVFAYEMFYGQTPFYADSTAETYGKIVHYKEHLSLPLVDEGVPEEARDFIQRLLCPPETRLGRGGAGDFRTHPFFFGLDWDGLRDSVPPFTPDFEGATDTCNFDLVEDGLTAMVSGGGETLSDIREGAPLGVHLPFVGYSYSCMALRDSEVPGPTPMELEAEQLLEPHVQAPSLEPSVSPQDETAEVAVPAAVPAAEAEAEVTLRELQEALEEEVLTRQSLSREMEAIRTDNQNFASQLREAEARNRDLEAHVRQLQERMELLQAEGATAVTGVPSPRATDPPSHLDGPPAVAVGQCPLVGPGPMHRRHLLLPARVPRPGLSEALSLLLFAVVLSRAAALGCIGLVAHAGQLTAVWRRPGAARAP
Sequence of CDKL2 (Q92772 whole entry): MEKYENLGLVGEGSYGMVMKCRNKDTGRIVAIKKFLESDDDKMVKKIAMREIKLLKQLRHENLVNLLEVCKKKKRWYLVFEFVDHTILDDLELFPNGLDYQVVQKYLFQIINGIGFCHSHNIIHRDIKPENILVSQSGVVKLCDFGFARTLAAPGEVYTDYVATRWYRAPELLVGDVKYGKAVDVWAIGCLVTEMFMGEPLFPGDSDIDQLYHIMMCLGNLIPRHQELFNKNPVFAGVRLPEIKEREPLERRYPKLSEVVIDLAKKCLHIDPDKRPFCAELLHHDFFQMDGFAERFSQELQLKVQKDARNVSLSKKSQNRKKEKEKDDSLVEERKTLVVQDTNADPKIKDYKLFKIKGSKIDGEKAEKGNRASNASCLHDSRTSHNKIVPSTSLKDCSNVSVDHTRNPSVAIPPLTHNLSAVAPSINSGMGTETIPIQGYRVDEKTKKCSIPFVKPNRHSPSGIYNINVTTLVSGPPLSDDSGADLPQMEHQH

For `C=C(C)[C@H]1CC=C(C)C(=O)C1` [S-carvone], the remaining binding at 100 µM [1] was 78%, the remaining binding at 100 µM (ALK) was 73% and the remaining binding at 100 µM (BMPR1A) was 92%. For the same molecule, the remaining binding at 100 µM (CDK4) was 71%, the remaining binding at 100 µM (CDKL2) was 85% and the remaining binding at 100 µM (DMPK) was 94%. The remaining binding at 100 µM (HIPK3) was 51%, the remaining binding at 100 µM (LATS1) was 91% and the remaining binding at 100 µM (MARK2) was 100%. The remaining binding at 100 µM (MEK4) was 74%, the remaining binding at 100 µM (MET(Y1235D)) was 87% and the remaining binding at 100 µM (MLK1) was 92%. The remaining binding at 100 µM (NIM1) was 65%, the remaining binding at 100 µM (OSR1) was 78% and the remaining binding at 100 µM (PAK4) was 74%. The remaining binding at 100 µM (PCTK3) was 85%, the remaining binding at 100 µM (PFTK1) was 93% and the remaining binding at 100 µM (PIK3CG) was 69%. The remaining binding at 100 µM [2] was 87%, the remaining binding at 100 µM (TGFBR2) was 77% and the remaining binding at 100 µM (WNK1) was 86%. It also gave a remaining binding at 100 µM (WNK2) of 77%.
